Laboratory results as given in ChEMBL document CHEMBL1909046, “DrugMatrix in vitro pharmacology data”.

Assays:
[1] = DRUGMATRIX: Sodium/nucleoside co-transporter radioligand binding (ligand: nitrobenzylthioinosine); assay type: cell membranes, Cavia porcellus, Dunkin-Hartley, Cerebral cortex, Membrane; conditions: Not Active = under 50% inhibition at 10 µM
[2] = target: 5-hydroxytryptamine receptor 1B (Rattus norvegicus, UniProt P28564); assay type: cell membranes, Wistar, Cerebral cortex, Membrane; also: in other assays of this panel Not Active means under 50% inhibition at 10 µM
5-hydroxytryptamine receptor 1B, sequence (P28564 whole entry): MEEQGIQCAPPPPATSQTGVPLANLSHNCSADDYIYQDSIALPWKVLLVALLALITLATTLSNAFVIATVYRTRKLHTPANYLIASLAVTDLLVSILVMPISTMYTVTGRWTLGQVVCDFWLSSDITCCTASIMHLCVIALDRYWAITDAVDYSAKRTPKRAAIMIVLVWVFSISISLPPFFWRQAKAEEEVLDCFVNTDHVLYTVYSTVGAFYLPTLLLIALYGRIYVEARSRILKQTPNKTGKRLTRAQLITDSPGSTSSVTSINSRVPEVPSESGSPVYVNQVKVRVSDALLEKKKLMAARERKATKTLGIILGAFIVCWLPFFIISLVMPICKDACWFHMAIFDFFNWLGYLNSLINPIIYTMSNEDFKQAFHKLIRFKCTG

[3] = target: T1, Type-2 angiotensin II receptor (Homo sapiens, UniProt P50052); test: biochemical; assay type: cell-based, CHO-K1; conditions: cho-k1; also: in other assays of this panel Not Active means under 50% inhibition at 10 µM
T1 sequence (P50052 whole entry): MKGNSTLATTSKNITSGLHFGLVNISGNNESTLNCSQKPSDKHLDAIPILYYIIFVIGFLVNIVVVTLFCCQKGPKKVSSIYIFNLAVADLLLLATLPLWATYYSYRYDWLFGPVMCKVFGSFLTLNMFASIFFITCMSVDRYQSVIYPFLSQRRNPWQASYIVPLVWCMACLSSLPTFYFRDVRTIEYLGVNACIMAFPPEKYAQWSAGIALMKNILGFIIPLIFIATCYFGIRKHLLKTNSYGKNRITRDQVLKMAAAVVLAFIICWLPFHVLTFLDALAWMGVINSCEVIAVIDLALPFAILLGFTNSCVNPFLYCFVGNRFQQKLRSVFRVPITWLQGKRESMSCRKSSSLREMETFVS

[4] = target: T2, Alpha-1B adrenergic receptor (Rattus norvegicus, UniProt P15823); test: DRUGMATRIX: Alpha-1B adrenergic receptor radioligand binding (ligand: prazosin); assay type: cell membranes, Wistar, Liver, Membrane; conditions: Not Active = under 50% inhibition at 10 µM
T2 sequence (P15823 whole entry): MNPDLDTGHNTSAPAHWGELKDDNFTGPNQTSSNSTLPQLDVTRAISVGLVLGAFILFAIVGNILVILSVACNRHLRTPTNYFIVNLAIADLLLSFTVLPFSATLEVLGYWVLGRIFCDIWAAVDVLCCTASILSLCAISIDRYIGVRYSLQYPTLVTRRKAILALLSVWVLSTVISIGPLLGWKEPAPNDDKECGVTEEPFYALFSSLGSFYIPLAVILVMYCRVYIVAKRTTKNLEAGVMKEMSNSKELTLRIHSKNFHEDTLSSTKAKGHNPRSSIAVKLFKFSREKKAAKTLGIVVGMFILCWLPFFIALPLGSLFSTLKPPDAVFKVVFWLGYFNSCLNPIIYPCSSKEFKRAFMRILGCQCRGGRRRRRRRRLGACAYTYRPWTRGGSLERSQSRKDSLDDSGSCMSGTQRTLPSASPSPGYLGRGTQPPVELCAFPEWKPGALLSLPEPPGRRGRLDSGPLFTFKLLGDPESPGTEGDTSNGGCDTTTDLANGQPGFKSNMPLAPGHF

[5] = target: Aldo-keto reductase family 1 member B1 (Rattus norvegicus, UniProt P07943); test: biochemical; assay type: tissue-based, Lens of camera-type eye;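 also: inhibition of aldose reductase enzyme activity, measured with DL-glyceraldehyde as the substrate; in other assays of this panel Not Active means under 50% inhibition at 10 µM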
Thromboxane-A synthase = target: T3, Thromboxane-A synthase (Homo sapiens, UniProt P24557); test: biochemical; assay type: tissue-based, Platelet;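 also: enzyme inhibition assay with PGH2 supplied as substrate; in other assays of this panel Not Active means under 50% inhibition at 10 µM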
T3 sequence (P24557 whole entry): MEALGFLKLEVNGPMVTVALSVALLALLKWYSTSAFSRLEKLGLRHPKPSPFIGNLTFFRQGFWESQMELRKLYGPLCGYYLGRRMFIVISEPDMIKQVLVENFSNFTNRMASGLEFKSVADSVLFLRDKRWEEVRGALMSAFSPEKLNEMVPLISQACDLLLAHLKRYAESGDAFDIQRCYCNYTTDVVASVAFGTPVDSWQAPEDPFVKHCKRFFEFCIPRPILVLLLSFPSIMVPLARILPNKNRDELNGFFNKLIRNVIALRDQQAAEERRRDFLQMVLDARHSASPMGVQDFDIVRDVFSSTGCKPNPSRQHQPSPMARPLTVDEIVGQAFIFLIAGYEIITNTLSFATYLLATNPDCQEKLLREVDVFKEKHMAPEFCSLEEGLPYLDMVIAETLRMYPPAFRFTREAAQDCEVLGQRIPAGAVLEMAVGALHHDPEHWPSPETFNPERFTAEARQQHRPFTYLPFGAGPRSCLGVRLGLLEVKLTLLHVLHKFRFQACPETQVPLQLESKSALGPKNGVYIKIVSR

SMILES | IC50 [1] | Ki [1] | IC50 [2] | IC50 [3] | IC50 [4] | IC50 [5] | IC50 (Thromboxane-A synthase; platelet) | IC50 (Thromboxane-A synthase; read-out: IC50) | IC50 ([2]; read-out: IC50) | Ki ([2]; read-out: Ki) | IC50 ([4]; read-out: IC50) | Ki ([4]; read-out: Ki)
COc1ccccc1N | Not Active | Not Active | Not Active | Not Active | Not Active | Not Active | Not Active | – | – | – | – | –
Cc1c(O)cccc1C(=O)N[C@@H](CSc1ccccc1)[C@H](O)CN1C[C@H]2CCCC[C@H]2C[C@H]1C(=O)NC(C)(C)C | Not Active | Not Active | Not Active | Not Active | Not Active | Not Active | – | 21100 nM | – | – | – | –
CC(O)COC[C@H]1O[C@@H]2O[C@H]3[C@H](O)[C@@H](O)[C@@H](O[C@H]4[C@H](O)[C@@H](O)[C@@H](O[C@H]5[C@H](O)[C@@H](O)[C@@H](O[C@H]6[C@H](O)[C@@H](O)[C@@H](O[C@H]7[C@H](O)[C@@H](O)[C@@H](O[C@H]8[C@H](O)[C@@H](O)[C@@H](O[C@H]1[C@H](O)[C@H]2O)O[C@@H]8COCC(C)O)O[C@@H]7COCC(C)O)O[C@@H]6COCC(C)O)O[C@@H]5COCC(C)O)O[C@@H]4COCC(C)O)O[C@@H]3COCC(C)O (stereo partly drawn) [2-HYDROXYPROPYL-BETA-CYCLODEXTRIN] | Not Active | Not Active | Not Active | Not Active | Not Active | Not Active | Not Active | – | – | – | – | –
C[C@H]1O[C@H](O[C@H]2[C@H](O)[C@@H](O)[C@@H](O[C@H]3[C@H](O)[C@@H](O)C(O)O[C@@H]3CO)O[C@@H]2CO)[C@H](O)[C@@H](O)[C@@H]1N[C@H]1C=C(CO)[C@@H](O)[C@H](O)[C@H]1O (some centres undefined) [ACARBOSE] | Not Active | Not Active | Not Active | Not Active | Not Active | Not Active | Not Active | – | – | – | – | –
CC[C@H]1[C@@H]2C[C@H]3[C@@H]4N(C)c5ccccc5[C@]45C[C@@H]([C@@H]2[C@H]5O)N3[C@@H]1O [AJMALINE] | Not Active | Not Active | Not Active | Not Active | Not Active | Not Active | Not Active | – | – | – | – | –
NC12CC3CC(CC(C3)C1)C2 [AMANTADINE] | Not Active | Not Active | Not Active | Not Active | Not Active | Not Active | Not Active | – | – | – | – | –
NCCCNCCSP(=O)(O)O [AMIFOSTINE] | Not Active | Not Active | Not Active | Not Active | Not Active | Not Active | Not Active | – | – | – | – | –
CN(C)CCC=C1c2ccccc2CCc2ccccc21 [AMITRIPTYLINE] | Not Active | Not Active | – | Not Active | – | Not Active | Not Active | – | 3730 nM | 1690 nM | 76 nM | 42 nM
CC(C)c1c(C(=O)Nc2ccccc2)c(-c2ccccc2)c(-c2ccc(F)cc2)n1CC[C@@H](O)C[C@@H](O)CC(=O)O [ATORVASTATIN] | Not Active | Not Active | Not Active | Not Active | Not Active | Not Active | Not Active | – | – | – | – | –
C[C@H]1[C@H](NC(=O)/C(=N\OC(C)(C)C(=O)O)c2csc(N)n2)C(=O)N1S(=O)(=O)O [AZTREONAM] | Not Active | Not Active | Not Active | Not Active | Not Active | Not Active | Not Active | – | – | – | – | –
O=C(O)CCNC(=O)c1ccc(/N=N/c2ccc(O)c(C(=O)O)c2)cc1 [BALSALAZIDE] | Not Active | Not Active | Not Active | Not Active | Not Active | Not Active | Not Active | – | – | – | – | –
Cn1c(=O)c2c(ncn2C)n(C)c1=O [CAFFEINE] | Not Active | Not Active | Not Active | Not Active | Not Active | Not Active | Not Active | – | – | – | – | –
ClC(Cl)(Cl)Cl [CARBON TETRACHLORIDE] | Not Active | Not Active | Not Active | Not Active | Not Active | Not Active | Not Active | – | – | – | – | –
CO/N=C(\C(=O)N[C@@H]1C(=O)N2C(C(=O)O)=C(COC(C)=O)CS[C@H]12)c1csc(N)n1 [CEFOTAXIME] | Not Active | Not Active | Not Active | Not Active | Not Active | Not Active | Not Active | – | – | – | – | –
Cc1cc(O)cc(C)c1Cl [CHLOROXYLENOL] | Not Active | Not Active | Not Active | Not Active | Not Active | Not Active | Not Active | – | – | – | – | –
CCCNC(=O)NS(=O)(=O)c1ccc(Cl)cc1 [CHLORPROPAMIDE] | Not Active | Not Active | Not Active | Not Active | Not Active | Not Active | Not Active | – | – | – | – | –
NS(=O)(=O)c1cc(C2(O)NC(=O)c3ccccc32)ccc1Cl (centres undefined) [CHLORTHALIDONE] | Not Active | Not Active | Not Active | Not Active | Not Active | Not Active | Not Active | – | – | – | – | –
O=C(O)CC(O)(CC(=O)O)C(=O)O [CITRIC ACID] | Not Active | Not Active | Not Active | Not Active | Not Active | Not Active | Not Active | – | – | – | – | –
CN1C[C@@H]2C[C@H]1CN2c1cc2c(cc1F)c(=O)c(C(=O)O)cn2C1CC1 [DANOFLOXACIN] | Not Active | Not Active | Not Active | Not Active | Not Active | Not Active | Not Active | – | – | – | – | –
COc1cccc2c1C(=O)c1c(O)c3c(c(O)c1C2=O)C[C@@](O)(C(C)=O)C[C@@H]3O[C@H]1C[C@H](N)[C@H](O)[C@H](C)O1 [DAUNORUBICIN] | Not Active | Not Active | Not Active | Not Active | Not Active | Not Active | Not Active | – | – | – | – | –
O=C(O)c1cc(-c2ccc(F)cc2F)ccc1O [DIFLUNISAL] | Not Active | Not Active | Not Active | Not Active | Not Active | Not Active | Not Active | – | – | – | – | –
C[S+](C)[O-] [DIMETHYL SULFOXIDE] | Not Active | Not Active | Not Active | Not Active | Not Active | Not Active | Not Active | – | – | – | – | –
CC1=NN(c2ccccc2)C(=O)C1 [EDARAVONE] | Not Active | Not Active | Not Active | Not Active | Not Active | Not Active | Not Active | – | – | – | – | –
C[C@]12CC[C@@H]3c4ccc(O)cc4CC[C@H]3[C@@H]1C[C@@H](O)[C@@H]2O [ESTRIOL] | Not Active | Not Active | Not Active | Not Active | Not Active | Not Active | Not Active | – | – | – | – | –
C#C[C@]1(O)CC[C@H]2[C@@H]3CCC4=CC(=O)CC[C@]4(C)[C@H]3CC[C@@]21C [ETHISTERONE] | Not Active | Not Active | Not Active | Not Active | Not Active | Not Active | Not Active | – | – | – | – | –
CC(O)(P(=O)(O)O)P(=O)(O)O [ETIDRONIC ACID] | Not Active | Not Active | Not Active | Not Active | Not Active | Not Active | Not Active | – | – | – | – | –
